Experimental data reported in patent US11976083B2, “Inhibitors of peptidylarginine deiminases” (Gilead Sciences, Inc., priority 2020, dated 2024).

The molecules below were run against T1, human PAD4 (Homo sapiens, UniProt Q9UM07) (assay: In vitro PAD4 BAEE biochemical assay). Conditions: BAEE substrate 3 mM, 5 nM PAD4, 2 mM calcium chloride; geometric mean of multiple experiments.
T1 construct: human PAD4 (NM_012387), A2-P663, was PCR amplified; His-SUMO (N, cleaved yes); made in house; host or cells: E. coli BL21(DE3)
T1 sequence (Q9UM07 2-663): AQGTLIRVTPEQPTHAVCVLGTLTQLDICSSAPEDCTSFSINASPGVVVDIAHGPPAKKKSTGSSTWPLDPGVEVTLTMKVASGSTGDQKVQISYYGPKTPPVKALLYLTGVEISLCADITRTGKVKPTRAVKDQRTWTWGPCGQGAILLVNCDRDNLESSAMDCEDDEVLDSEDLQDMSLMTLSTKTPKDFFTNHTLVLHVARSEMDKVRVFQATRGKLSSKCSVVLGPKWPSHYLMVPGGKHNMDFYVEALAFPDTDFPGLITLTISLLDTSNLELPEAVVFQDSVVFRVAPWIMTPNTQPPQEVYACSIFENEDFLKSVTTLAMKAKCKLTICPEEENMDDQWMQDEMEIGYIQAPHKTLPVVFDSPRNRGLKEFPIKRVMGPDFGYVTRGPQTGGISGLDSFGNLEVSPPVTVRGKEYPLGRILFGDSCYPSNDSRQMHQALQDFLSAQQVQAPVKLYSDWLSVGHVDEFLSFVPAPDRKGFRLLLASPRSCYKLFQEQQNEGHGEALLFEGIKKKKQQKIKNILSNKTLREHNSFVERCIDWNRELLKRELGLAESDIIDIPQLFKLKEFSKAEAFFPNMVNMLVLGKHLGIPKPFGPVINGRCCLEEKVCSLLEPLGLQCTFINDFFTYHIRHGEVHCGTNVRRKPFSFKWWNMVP
Summary of the method: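 PAD4 5 nM, CaCl2 2 mM, BAEE 3 mM final; 50 mM MOPS pH 7.6, 50 mM NaCl, 0.05% Tween-20, 2 mM DTT. Cpd + enzyme 30 min 25 °C; substrate 2 h 25 °C; EDTA stop; OPA detection 1 h. IC50 4-parameter fit.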
Molecule `COc1cc(C(=O)N2CC[C@@H](OC)[C@@H](N)C2)cc2nc(-c3cc4ccc5nc4n3CCCCCc3nc4ccsc4cc3C(=O)N[C@@H]5C)n(C)c12` [Example 788, (2~{R})-20-[5-[(3~{S),4~{R})-3-amino-4-methoxy-piperidine-1-carbonyl]-7-methoxy-1-methyl-benzimidazol-2-yl]-2-methyl-8-thia-3,12,19,25-tetrazapentacyclo[17.5.2.0^ {5,13).0^{7,11}.0^{22,26}] hexacosa-1(24),5(13), 6,9,11,20,22,25-octaen-4-one] has an IC50 of 35 nM.
In the case of `CO[C@@H]1CCN(C(=O)c2cc(F)c3c(c2)nc(-c2cc4ccc5nc4n2CCCCCc2nc(Cl)ccc2C(=O)N[C@@H]5C)n3C2CC2)C[C@@H]1N` [Example 789, (2~{R})-17-[5-[(3~{S},4~{R})-3-amino-4-methoxy-piperidine-1-carbonyl]-1-cyclopropyl-7-fluoro-benzimidazol-2-yl]-8-chloro-2-methyl-3,9,16,22-tetrazatetracyclo[14.5.2.0^ {5,10}.0^{19,23}]tricosa-1(21),5(10),6,8,17,19,22-heptaen-4-one], the IC50 is reported as 22 nM.
Work on `C[C@@H]1[C@H](N)CCCN1C(=O)c1cc(F)c2c(c1)nc(-c1cc3ccc4nc3n1CCCCCc1nc(Cl)ccc1C(=O)N[C@@H]4C)n2C1CC1` [Example 790, (2~{R})-17-[5-[(2~{R},3~{R})-3-amino-2-methyl-piperidine-1-carbonyl]-1-cyclopropyl-7-fluoro-benzimidazol-2-yl]-8-chloro-2-methyl-3,9,16,22-tetrazatetracyclo[14.5.2.0^ {5,10}.0^{19,23}]tricosa-1(21),5(10),6,8,17,19,22-heptaen-4-one] yielded an IC50 of 23 nM.
With `C[C@H]1NC(=O)c2ccc(Cl)nc2CCCCCn2c(-c3nc4cc(C(=O)N5C[C@H](N)C[C@@H](F)C5)cc(F)c4n3C3CC3)cc3ccc1nc32` [Example 791, (2~{R})-17-[5-[(3~{R},5~{R})-3-amino-5-fluoro-piperidine-1-carbonyl]-1-cyclopropyl-7-fluoro-benzimidazol-2-yl]-8-chloro-2-methyl-3,9,16,22-tetrazatetracyclo[14.5.2.0^ {5,10}.0^{19,23}]tricosa-1(21),5(10),6,8,17,19,22-heptaen-4-one] the IC50 was 17 nM.
For `COc1cc(C(=O)N2C[C@H](N)C[C@@H](F)[C@@H]2C)cc2nc(-c3cc4ccc5nc4n3CC(F)(F)CCCC3C[C@H]3C(=O)N[C@@H]5C)n(C)c12` (some centres unmarked) [Example 792, (2~{R},5~{R),7~{R})-14-[5-[(2~{S),3~{R},5~{R})-5-amino-3-fluoro-2-methyl-piperidine-1-carbonyl]-7-methoxy-1-methyl-benzimidazol-2-yl]-11,11-difluoro-2-methyl-3,13,19-triazatetracyclo [11.5.2.0^{5,7}.0^{16,20}] icosa-1(18),14,16,19-tetraen-4-one], the IC50 was 342 nM.
With `COc1cc(C(=O)N2CCC[C@@H](N)[C@H]2C)cc2nc(-c3cc4ccc5nc4n3CCCCCc3nc4ccsc4cc3C(=O)N[C@@H]5C)n(C)c12` [Example 793, (2~{R})-20-[5-[(2~{R},3~{R})-3-amino-2-methyl-piperidine-1-carbonyl]-7-methoxy-1-methyl-benzimidazol-2-yl]-2-methyl-8-thia-3,12,19,25-tetrazapentacyclo[17.5.2.0^ {5,13}.0^{7,11}.0^{22,26}] hexacosa-1(24),5(13),6,9, 11,20,22,25-octaen-4-one] the IC50 was 24 nM.
`COc1cc(C(=O)N2C[C@H](N)C[C@@H](F)C2)cc2nc(-c3cc4ccc5nc4n3CCCCCc3nc4ccsc4cc3C(=O)N[C@@H]5C)n(C)c12` [Example 794, (2~{R})-20-[5-[(3~{R},5~{R})-3-amino-5-fluoro-piperidine-1-carbonyl]-7-methoxy-1-methyl-benzimidazol-2-yl]-2-methyl-8-thia-3,12,19,25-tetrazapentacyclo[17.5.2.0^ {5,13}.0^{7,11).0^{22,26}] hexacosa-1(24),5(13), 6,9,11,20,22,25-octaen-4-one] was tested, and the IC50 was 18 nM.
Molecule `COc1cc(C(=O)N2C[C@H](N)C[C@@H](F)[C@@H]2C)cc2nc(-c3cc4ccc5nc4n3CCCCCCC(C)(C)C(=O)N[C@@H]5C)n(C)c12` [Example 795, (11~{R})-17-[5-[(2~{S),3~{R},5~ {R})-5-amino-3-fluoro-2-methyl-piperidine-1-carbonyl]-7-methoxy-1-methyl-benzimidazol-2-yl]-8,8,11-trimethyl-1,10,19-triazatricyclo[10.5.2.0^ {15,18}]nonadeca-12,14,16,18-tetraen-9-one] has an IC50 of 661 nM.
For `C[C@@H]1[C@H](N)CCCN1C(=O)c1cc(F)c2c(c1)nc(-c1cc3ccc4nc3n1CCCCCc1nc3ccsc3cc1C(=O)N[C@@H]4C)n2C1CC1` [Example 796, (2~{R})-20-[5-[(2~{R},3~{R})-3-amino-2-methyl-piperidine-1-carbonyl]-1-cyclopropyl-7-fluoro-benzimidazol-2-yl]-2-methyl-8-thia-3,12,19,25-tetrazapentacyclo[17.5.2.0^ {5,13}.0^{7,11).0^{22,26}] hexacosa-1(24),5(13), 6,9,11,20,22,25-octaen-4-one], the IC50 was 5 nM.
Molecule `CO[C@@H]1CCN(C(=O)c2cc(F)c3c(c2)nc(-c2cc4ccc5nc4n2CCCCCc2nc4ccsc4cc2C(=O)N[C@@H]5C)n3C2CC2)C[C@@H]1N` [Example 797, (2~{R})-20-[5-[(3~{S},4~{R})-3-amino-4-methoxy-piperidine-1-carbonyl]-1-cyclopropyl-7-fluoro-benzimidazol-2-yl]-2-methyl-8-thia-3,12,19,25-tetrazapentacyclo[17.5.2.0^ {5,13}.0^{7,11}.0^{22,26}] hexacosa-1(24),5(13), 6,9,11,20,22,25-octaen-4-one] has an IC50 of 16 nM.
`C[C@H]1NC(=O)c2ccc(Cl)nc2CCCCCn2c(-c3nc4cc(C(=O)N5C[C@H]6CC[C@@H]5[C@@H]6N)cc(F)c4n3C3CC3)cc3ccc1nc32` [Example 798, (2~{R})-17-[5-[(1~{R},4~{R}, 7~{R})-7-amino-2-azabicyclo [2.2.1]heptane-2-carbonyl]-1-cyclopropyl-7-fluoro-benzimidazol-2-yl]-8-chloro-2-methyl-3,9,16,22-tetrazatetracyclo[14.5.2.0^ {5,10}.0^{19,23}]tricosa-1(21),5(10),6,8,17,19,22-heptaen-4-one] was tested, and the IC50 was 17 nM.
`COc1cc(C(=O)N2CCC[C@@H](N)[C@H]2C)cc2nc(-c3cc4ccc5nc4n3CCCCCCC3(COC3)C(=O)N[C@@H]5C)n(C)c12` [Example 799, (11~{R})-17-[5-[(2~{R},3~{R})-3-amino-2-methyl-piperidine-1-carbonyl]-7-methoxy-1-methyl-benzimidazol-2-yl]-11-methyl-spiro[1,10,19-triazatricyclo[10.5.2.0^ {15,18}]nonadeca-12,14,16,18-tetraene-8,3′-oxetane]-9-one] showed an IC50 of 12 nM.
`COc1cc(C(=O)N2C[C@@H](O)C[C@@H](N)[C@H]2C)cc2nc(-c3cc4ccc5nc4n3CCCCCCC(C)(C)C(=O)N[C@@H]5C)n(C)c12` [Example 800, (11~{R})-17-[5-[(2~{R},3~{R}, 5~{S})-3-amino-5-hydroxy-2-methyl-piperidine-1-carbonyl]-7-methoxy-1-methyl-benzimidazol-2-yl]-8,8,11-trimethyl-1,10,19-triazatricyclo [10.5.2.0^{15,18}]nonadeca-12,14,16,18-tetraen-9-one] showed an IC50 of 74 nM.
For `COc1cc(C(=O)N2C[C@@H]3NCCO[C@@H]3C[C@@H]2C)cc2nc(-c3cc4ccc5nc4n3CC(F)(F)CCC[C@@H]3C[C@H]3C(=O)N[C@@H]5C)n(C)c12` [Example 801, (2~{R},5~{R},7~{R})-14-[5-[(4~{a}~{S),7~{S},8~{a}~ {R})-7-methyl-2,3,4,4~{a}, 5,7,8,8~{a}-octahydropyrido [4,3-b][1,4]oxazine-6-carbonyl]-7-methoxy-1-methyl-benzimidazol-2-yl]-11,11-difluoro-2-methyl-3,13,19-triazatetracyclo[11.5.2.0^ {5,7}.0^{16,20}]icosa-1(18),14,16,19-tetraen-4-one], the IC50 was 334 nM.
With `CO[C@H]1C[C@@H]1n1c(-c2cc3ccc4nc3n2CC(F)(F)CCC[C@@H]2C[C@H]2C(=O)N[C@@H]4C)nc2cc(C(=O)N3CCC[C@@H](N)[C@H]3C)cc(F)c21` [Example 802, (2~{R},5~{R},7~{R})-14-[5-[(2~{R},3~{R})-3-amino-2-methyl-piperidine-1-carbonyl]-7-fluoro-1-[(1~{S},2~{S})-2-methoxycyclopropyl]benzimidazol-2-yl]-11,11-difluoro-2-methyl-3,13,19-triazatetracyclo [11.5.2.0^{5,7}.0^{16,20}] icosa-1(18),14,16,19-tetraen-4-one] the IC50 was 22 nM.
In the case of `COc1cc(C(=O)N2CC[C@H]3OCCN[C@H]3C2)cc2nc(-c3cc4ccc5nc4n3CC(F)(F)CCC[C@@H]3C[C@H]3C(=O)N[C@@H]5C)n(C)c12` [Example 803, (2~{R},5~{R},7~{R})-14-[5-[(4~{a}~{S},8~{a}~{R})-2,3,4,4~{a},5,7,8,8~{a}-octahydropyrido[4,3-b][1,4]oxazine-6-carbonyl]-7-methoxy-1-methyl-benzimidazol-2-yl]-11,11-difluoro-2-methyl-3,13,19-triazatetracyclo[11.5.2.0^ {5,7}.0^{16,20}]icosa-1(18),14,16,19-tetraen-4-one], the IC50 is reported as 118 nM.
`CO[C@H]1C[C@@H]1n1c(-c2cc3ccc4nc3n2CC(F)(F)CCC[C@@H]2C[C@H]2C(=O)N[C@@H]4C)nc2cc(C(=O)N3C[C@H]4CC[C@@H]3[C@@H]4N)cc(F)c21` [Example 804, (2~{R},5~{R},7~{R})-14-[5-[(1~{R},4~{R},7~{R})-7-amino-2-azabicyclo[2.2.1]heptane-2-carbonyl]-7-fluoro-1-[(1~{S},2~{S})-2-methoxycyclopropyl]benzimidazol-2-yl]-11,11-difluoro-2-methyl-3,13,19-triazatetracyclo[11.5.2.0^ {5,7}.0^{16,20}]icosa-1(18),14,16,19-tetraen-4-one] was tested, and the IC50 was 27 nM.
